Like-named read-outs stand apart in the source and are kept apart here.
Experiments:
Assay in all cases: LPS-stimulated whole bovine blood assay, MSD cytokine detection
Assay type in all cases: cell-based
IL-1β = conditions: overstimulation of IL-1β, LPS-stimulated bovine whole blood
TNF-α = conditions: Bos taurus, read-out: TNF-α (IC50 μM)
IL-6 = conditions: Bos taurus, read-out: IL-6 (IC50 μM)
Source text: In order to correlate RNA sequencing data to cytokine changes the whole blood assay was utilized. […] The enhancement result represents an overall stimulation of cytokine levels due to cellular stress or potential toxicity with increasing concentrations of the compound, representing a typical bell shape response curve for immunomodulatory activity.

[1] = LPS-stimulated bovine whole blood

Row | IC50 (TNF-α; [1]) [µM] | IC50 (IL-6; [1]) [µM] | SMILES | IL-1β OS of LPS (IL-1β) [µM] | IC50 (TNF-α) [µM] | IC50 (IL-6) [µM]
1 | 30 | > 250 | CC[C@H]1OC(=O)[C@H](C)[C@@H](O[C@H]2C[C@@](C)(OC)[C@](O)(CNC)[C@H](C)O2)[C@H](C)[C@@H](O[C@@H]2O[C@H](C)C[C@H](N(C)C(=O)N(C)c3ccccc3)[C@H]2O)[C@](C)(O)C[C@@H](C)CN[C@H](C)[C@@H](O)[C@]1(C)O [Example H-26, 1-((2S,3R,4S,6R)-2-(((2R,3S,4R,5R,8R,10R,11R,12S,13S,14R)-2-ethyl-3,4,10-trihydroxy-13-(((2R,4R,5S,6S)-5-hydroxy-4-methoxy-4,6-dimethyl-5-((methylamino)methyl)tetrahydro-2H-pyran-2-yl)oxy)-3,5,8,10,12,14-hexamethyl-15-oxo-1-oxa-6-azacyclopentadecan-11-yl)oxy)-3-hydroxy-6-methyltetrahydro-2H-pyran-4-yl)-1,3-dimethyl-3-phenylurea] | 250 |  | 
2 | 250 | > 250 | CC[C@H]1OC(=O)[C@H](C)[C@@H](O[C@H]2C[C@@](C)(OC)[C@](O)(CNCC3CCN(C)CC3)[C@H](C)O2)[C@H](C)[C@@H](O[C@@H]2O[C@H](C)C[C@H](N(C)C(=O)N(C)c3ccccc3)[C@H]2O)[C@](C)(O)C[C@@H](C)CN[C@H](C)[C@@H](O)[C@]1(C)O [Example H-30, 1-((2S,3R,4S,6R)-2-(((2R,3S,4R,5R,8R,10R,11R,12S,13S,14R)-2-ethyl-3,4,10-trihydroxy-13-(((2R,4R,5S,6S)-5-hydroxy-4-methoxy-4,6-dimethyl-5-((((1-methylpiperidin-4-yl)methyl)amino)methyl)tetrahydro-2H-pyran-2-yl)oxy)-3,5,8,10,12,14-hexamethyl-15-oxo-1-oxa-6-azacyclopentadecan-11-yl)oxy)-3-hydroxy-6-methyltetrahydro-2H-pyran-4-yl)-1,3-dimethyl-3-phenylurea] | 250 |  | 
3 | 49 | 36 | CC[C@H]1OC(=O)[C@H](C)[C@@H](O[C@H]2C[C@@](C)(OC)[C@](O)(CNCCCN3CCCCC3)[C@H](C)O2)[C@H](C)[C@@H](O[C@@H]2O[C@H](C)C[C@H](N(C)C(=O)N(C)c3ccccc3)[C@H]2O)[C@](C)(O)C[C@@H](C)CN[C@H](C)[C@@H](O)[C@]1(C)O [Example H-38, 1-((2S,3R,4S,6R)-2-(((2R,3S,4R,5R,8R,10R,11R,12S,13S,14R)-2-ethyl-3,4,10-trihydroxy-13-(((2R,4R,5S,6S)-5-hydroxy-4-methoxy-4,6-dimethyl-5-(((3-(piperidin-1-yl)propyl)amino)methyl)tetrahydro-2H-pyran-2-yl)oxy)-3,5,8,10,12,14-hexamethyl-15-oxo-1-oxa-6-azacyclopentadecan-11-yl)oxy)-3-hydroxy-6-methyltetrahydro-2H-pyran-4-yl)-1,3-dimethyl-3-phenylurea] | >250 |  | 
4 | 109 | 130 | CCCNC[C@]1(O)[C@H](C)O[C@@H](O[C@H]2[C@H](C)[C@@H](O[C@@H]3O[C@H](C)C[C@H](N(C)C(=O)N(C)c4ccccn4)[C@H]3O)[C@](C)(O)C[C@@H](C)CN[C@H](C)[C@@H](O)[C@](C)(O)[C@@H](CC)OC(=O)[C@@H]2C)C[C@@]1(C)OC [Example H-45, 1-((2S,3R,4S,6R)-2-(((2R,3S,4R,5R,8R,10R,11R,12S,13S,14R)-2-ethyl-3,4,10-trihydroxy-13-(((2R,4R,5S,6S)-5-hydroxy-4-methoxy-4,6-dimethyl-5-((propylamino)methyl)tetrahydro-2H-pyran-2-yl)oxy)-3,5,8,10,12,14-hexamethyl-15-oxo-1-oxa-6-azacyclopentadecan-11-yl)oxy)-3-hydroxy-6-methyltetrahydro-2H-pyran-4-yl)-1,3-dimethyl-3-(pyridin-2-yl)urea] | 250 |  | 
5 | 106 | > 250 | CC[C@H]1OC(=O)[C@H](C)[C@@H](O[C@H]2C[C@@](C)(OC)[C@](O)(CN)[C@H](C)O2)[C@H](C)[C@@H](O[C@@H]2O[C@H](C)C[C@H](N(C)C(=O)N(C)c3ccccc3)[C@H]2O)[C@](C)(O)C[C@@H](C)CN[C@H](C)[C@@H](O)[C@]1(C)O [Example H-66, 1-((2S,3R,4S,6R)-2-(((2R,3S,4R,5R,8R,10R,11R,12S,13S,14R)-13-(((2R,4R,5S,6S)-5-(aminomethyl)-5-hydroxy-4-methoxy-4,6-dimethyltetrahydro-2H-pyran-2-yl)oxy)-2-ethyl-3,4,10-trihydroxy-3,5,8,10,12,14-hexamethyl-15-oxo-1-oxa-6-azacyclopentadecan-11-yl)oxy)-3-hydroxy-6-methyltetrahydro-2H-pyran-4-yl)-1,3-dimethyl-3-phenylurea] | 250 |  | 

Second part, the compound before the results:

Row | SMILES | IC50 (TNF-α; [1]) [µM] | IC50 (IL-6; [1]) [µM] | IL-1β OS of LPS (IL-1β) [µM] | IC50 (TNF-α) [µM] | IC50 (IL-6) [µM]
6 | CCCN(C[C@]1(O)[C@H](C)O[C@@H](O[C@H]2[C@H](C)[C@@H](O[C@@H]3O[C@H](C)C[C@H](N(C)C(N)=O)[C@H]3O)[C@](C)(O)C[C@@H](C)CN[C@H](C)[C@@H](O)[C@](C)(O)[C@@H](CC)OC(=O)[C@@H]2C)C[C@@]1(C)OC)C(N)=O [Example H-22, 1-((2S,3R,4S,6R)-2-(((2R,3S,4R,5R,8R,10R,11R,12S,13S,14R)-2-ethyl-3,4,10-trihydroxy-13-(((2R,4R,5S,6S)-5-hydroxy-4-methoxy-4,6-dimethyl-5-((1-propylureido)methyl)tetrahydro-2H-pyran-2-yl)oxy)-3,5,8,10,12,14-hexamethyl-15-oxo-1-oxa-6-azacyclopentadecan-11-yl)oxy)-3-hydroxy-6-methyltetrahydro-2H-pyran-4-yl)-1-methylurea] | > 500 | > 500 | >500 |  | 
7 | CCCNC[C@]1(O)[C@H](C)O[C@@H](O[C@H]2[C@H](C)[C@@H](O[C@@H]3O[C@H](C)C[C@H](N(C)C(=O)N(C)c4cncnc4)[C@H]3O)[C@](C)(O)C[C@@H](C)CN[C@H](C)[C@@H](O)[C@](C)(O)[C@@H](CC)OC(=O)[C@@H]2C)C[C@@]1(C)OC [Example H-50, 1-((2S,3R,4S,6R)-2-(((2R,3S,4R,5R,8R,10R,11R,12S,13S,14R)-2-ethyl-3,4,10-trihydroxy-13-(((2R,4R,5S,6S)-5-hydroxy-4-methoxy-4,6-dimethyl-5-((propylamino)methyl)tetrahydro-2H-pyran-2-yl)oxy)-3,5,8,10,12,14-hexamethyl-15-oxo-1-oxa-6-azacyclopentadecan-11-yl)oxy)-3-hydroxy-6-methyltetrahydro-2H-pyran-4-yl)-1,3-dimethyl-3-(pyrimidin-5-yl)urea] | > 250 | > 250 | >250 |  | 
8 | CCCNC[C@]1(O)[C@H](C)O[C@@H](O[C@H]2[C@H](C)[C@@H](O[C@@H]3O[C@H](C)C[C@H](N(C)C(=O)N(C)c4cnn(C)c4)[C@H]3O)[C@](C)(O)C[C@@H](C)CN[C@H](C)[C@@H](O)[C@](C)(O)[C@@H](CC)OC(=O)[C@@H]2C)C[C@@]1(C)OC [Example H-58, 1-((2S,3R,4S,6R)-2-(((2R,3S,4R,5R,8R,10R,11R,12S,13S,14R)-2-ethyl-3,4,10-trihydroxy-13-(((2R,4R,5S,6S)-5-hydroxy-4-methoxy-4,6-dimethyl-5-((propylamino)methyl)tetrahydro-2H-pyran-2-yl)oxy)-3,5,8,10,12,14-hexamethyl-15-oxo-1-oxa-6-azacyclopentadecan-11-yl)oxy)-3-hydroxy-6-methyltetrahydro-2H-pyran-4-yl)-1,3-dimethyl-3-(1-methyl-1H-pyrazol-4-yl)urea] |  |  | >250 | > 250 | > 250
